Legend:
[1] = system: RN22 cells; test: RN22 cell survival assay under CuSO4 stress (MTT); assay type: cell-based, rat; conditions: CuSO4 150 µM stress, 1 ng/ml - 10 µg/ml, 24 h; RN22 expresses p75 but not TrkA
Procedure: Compounds identified from the initial library screening were also tested to assess their capacity to promote cell survival. To delineate p75 signalling independent of TrkA, we used a rat schwannoma cell line (RN22) expressing p75, but not TrkA, (Gentry et al., 2000). Cell culture. The rat schawnnoma cell line RN22 was cultured in 5% CO2 at 37°C in Dulbecco's modified Eagle's medium (DMEM) with 10% fetal bovine serum (FBS) and penicillin/streptomycin. RN22 cells were plated at 20,000 cells/well on a 24-well plate in DMEM alone and after allowing the cells to adhere for 3 days, cupper sulphate (CuSO4) (150 µM) was added with or without NGF (100 ng/ml) or the peptidomimetic molecules A26-23, A26-24 and A28-A6 at different concentrations (1 ng/ml - 10 µg/ml) to generate stress and cell death. After 24 h cell viability was studied by determining the amount of yellow MTT (Sigma) that was reduced to insoluble purple formazan. After removing the medium, the water-insoluble formazan was solubilised with DMSO (Sigma), and the dissolved material was measured spectrophotometrically at a wavelength of 570 nm, subtracting the background at 650 nm (Frade, 2005).

[2] = system: PC12 cells; test: PC12 cell differentiation (neurite outgrowth); assay type: cell-based; conditions: 3 days, 2 ng/ml to 50 µg/ml, reduced serum (0.5% FBS and 1% HS); compared with NGF 100 ng/ml
Procedure: PC 12 cell differentiation was measured by plating cells onto collagen-coated 24-wells plates. NGF (100 ng/ml) or the small chemicals at different concentrations were added and the percentage of cells with neurite processes greater than two cell bodies in length were counted after relevant treatment. For each experiment at least 300 cells were randomly measured (Burstein and Greene, 1978). Cell culture. PC12 cells were maintained at 37°C in DMEM supplemented with 2.5% FBS, 15% of Horse serum (HS) and penicillin/streptomycin in a humidified 5% CO2 incubator. The cells were grown on 60-and 100-mm tissue culture dishes (Becton Dickinson). PC 12 cells were cultured for 3 days in the presence of the peptoids (from 2 ng/ml to 50 µg/ml) under reduced serum conditions (0.5% FBS and 1% HS).

| Molecule | survival of RN22 cells (cell viability, MTT) [1] | differentiation of PC12 cells (percentage of cells with neurite processes greater than two cell bodies in length) [2] |
| --- | --- | --- |
| 8-[2-(2-(5-methyl-1H-indol-2-yl)ethylamino)-2-oxoethyl]-7-oxo-8-aza-5-azoniaspiro[4.5]decane [A28-A6] | not to promote survival of RN22 cells | induce the differentiation of PC12 cells at different concentrations to an extent substantially comparable with that induce by NGF |
| C[N+]1(C)CCN(CC(=O)NCCc2ccc([N+](=O)[O-])cc2)C(=O)C1.[Cl-] [A26-23, 1,1-dimethyl-4-[2-(4-nitrophenethylamino) -2-oxoethyl] -3-oxopiperazinium chloride] | not to promote survival of RN22 cells | induce the differentiation of PC12 cells at different concentrations to an extent substantially comparable with that induce by NGF |
| C[N+]1(Cc2ccccc2)CCN(CC(=O)NCCc2ccc([N+](=O)[O-])cc2)C(=O)C1.[Cl-] (stereo not drawn) [A26-64, 1-benzyl-1-methyl-4-[2-(4-nitrophenethylamino)-2-oxoethyl]-3-oxopiperazinium chloride] | not to promote survival of RN22 cells | induce the differentiation of PC12 cells at different concentrations to an extent substantially comparable with that induce by NGF |
